Assay results published in patent US20220296628A1, “RNA COMBINATIONS AND COMPOSITIONS WITH DECREASED IMMUNOSTIMULATORY PROPERTIES” (CureVac AG, priority 2019, published 2022).

How the values were obtained:
mice (strain 129SV) = assay: PpLuc expression in liver lysates after i.v. injection of LNP-formulated PpLuc mRNA with or without oligonucleotide; type: in vivo, mouse; conditions: 24 hours post i.v. injection, 10 μg or 30 μg mRNA (either dose), compared to PpLuc mRNA without oligonucleotide (FIG. 3)
Protocol: For preparation of Lipid nanoparticles (LNP) containing both PpLuc mRNA and 2-O-methylated oligonucleotide, first the 2′-O-methylated oligonucleotide was added to PpLuc mRNA at a weight percentage of either 20% or 6.7% (see Table 3). LNP containing PpLuc mRNA either with or without admixture of 2-O-methylated oligonucleotide were prepared using cationic lipid, cholesterol, PEG-lipid and a neutral lipid. The mRNA was diluted to 1 g/L in citrate buffer, pH 4. The ethanolic lipid solution was mixed with the aqueous RNA solution at a ratio of 1:3 (vol/vol) using a Nanoassemblr (PrecisionNanoSystems). The ethanol was then removed and the buffer replaced by 10 mM HEPES, pH 7.4 comprising 9% Sucrose by dialysis. Finally, the LNP-formulated RNA was adjusted to 0.2 g/L.
For in vivo experiments, 8 weeks old female mice (around 25 g, strain 129SV) were injected with the various LNP formulations (see tables 4 and 5). 4 animals were used per group. […]
To prepare tissue lysates, first a steal bead was added to each liver. […] Plates were introduced into a plate reader (Berthold Technologies TriStar2 LB 942) and 50 μl per well of Beetle-Juice (PJK GmbH) containing luciferin as substrate for firefly luciferase was injected. Luciferase activity was quantified as relative light units (RLU). […]

human PBMCs = assay: PBMC co-transfection of PpLuc mRNA and antagonists (Table 6), luciferase activity in cell lysate; type: cell-based; conditions: 24 hours post transfection, DOTAP, antagonist 20% weight, compared to PpLuc mRNA without admixture (FIG. 5B)
Protocol: The preparation of human PBMCs was performed according to example 2.1. For transfection experiments 2×10^5 human PBMCs per well were seeded into each well of a 96-well plate in X-Vivo 15 medium (Lonza). For preparation of DOTAP (vehicle) complexes containing both the antagonist (either 2-O-methylated oligonucleotide variants, RNA oligonucleotides, DNA oligonucleotides or small molecules) as well as PpLuc mRNA (SEQ ID NO: 82, same RNA design as shown in table 2), the antagonist was first added to PpLuc mRNA at a weight percentage of 20% (1:5 mRNA: oligo/small molecule). The molar ratio of PpLuc mRNA to antagonist was thus 1:45 (MW (Oligonucleotide)=2907 g/mol, MW (PpLuc mRNA)=652377 g/mol). DOTAP complexes containing PpLuc mRNA and antagonist were formed at a ratio of 5 μl of DOTAP per 1 μg of mRNA and 100 ng were transfected. […] To quantify background stimulation, PBMC were incubated either with DOTAP alone (“vehicle”) or RPMI (“medium”) only. […] Expression analysis was performed by measuring the luciferase activity, which is measured as relative light units (RLU) in a BioTek SynergyHT plate reader. PpLuc activity is measured at 5 seconds measuring time using 50 μl of lysate and 200 μl of luciferin buffer (75 μM luciferin, 25 mM Glycylglycin, pH 7.8 (NaOH), 15 mM MgSO4, 2 mM ATP).

[1] = test system: human peripheral blood mononuclear cells (PBMCs); assay: PBMC stimulation: DOTAP co-transfection of capped PpLuc mRNA with oligonucleotide, cytokines by CBA; type: cell-based; conditions: DOTAP co-transfection with capped PpLuc mRNA 1 μg/ml, oligonucleotide 0.25 μg/ml (25% weight), supernatant 24 hours, compared to PpLuc mRNA only (FIG. 1B)
Protocol: Human peripheral blood mononuclear cells (PBMCs) were isolated from heparinized blood of healthy volunteers by standard Ficoll-Hypaque density gradient centrifugation (Ficoll 1.078 g/ml). PBMCs were re-suspended in RPMI 1640 supplemented with 10% heat-inactivated FCS. After counting, cells are re-suspended at 50 million cells per ml in fetal calf serum, 10% DMSO, and frozen. Before usage, the cells are thawed.
For transfection experiments, 2×10^5 human PBMCs per well were seeded into each well of a 96-well plate in X-Vivo 15 medium (Lonza). For preparation of DOTAP complexes containing both immunostimulatory non-coding RNA and a 2′-O-methylated oligonucleotide (SEQ ID NO: 85), the oligonucleotide was first added to immunostimulatory non-coding RNA at a weight percentage of 25%. For preparation of DOTAP complexes containing both PpLuc mRNA and a 2′-O-methylated oligonucleotide, the oligonucleotide was first added to PpLuc mRNA at a weight percentage of 25%. The molar ratio of PpLuc mRNA to oligonucleotide was thus […] (MW (Oligonucleotide)=2907 g/mol, MW (PpLuc mRNA)=652377 g/mol). DOTAP complexes containing either immunostimulatory non-coding RNA or PpLuc mRNA without or with oligonucleotide were formed at a ratio of 3 μl of DOTAP per 1 μg of RNAdjuvant or 1 μg of mRNA. […] To quantify background stimulation, PBMC were incubated either with DOTAP alone (“vehicle”) or medium only. […]
In supernatants collected from PBMC stimulated without or with 2-O-methylated oligonucleotide, the concentrations of IFN-α, IFN-γ, TNF, were measured by Cytometric Bead Array (CBA) according to the manufacturer's instructions (BD Biosciences) using the following kits: Human Soluble Protein Master Buffer Kit (catalog no. 558264), Assay Diluent (catalog no. 560104), Human IFN-α Flex Set (catalog no. 560379), Human IFN-γ Flex Set (catalog no. 558269), Human TNF Flex Set (catalog no. 560112); all kits from BD Biosciences. The data was analyzed using the FCAP Array v3.0 software (BD Biosciences).

## 5′-GAG CGmG CCA-3′ (GAGCNGCCA; 2'-O-methyl guanosine at position 5; 9mer oligonucleotide; modified_base (5)..(5) n can be any nucleotide, wherein the nucleotide is 2-O-methylated, preferably a 2-O-methylated guanosine) [Gm18, 9-mer 2′-O-methylated RNA oligonucleotide; position 5 is 2′-O-methylated guanosine (Gm); antagonist of TLR7 and 8]
Mice (strain 129SV)
  expression of PpLuc in liver lysates (luciferase activity): increases the expression
Human PBMCs
  expression of PpLuc in PBMCs: increases the expression
[1]
  secretion of cytokine INF-a: reduced secretion
  secretion of cytokine INF-y: reduced secretion
  secretion of cytokine TNF: reduced secretion
